Among the data in PubChem BioAssay AID179 (DTP/NCI, 2004) are outcome, EC50 and IC50 values, retold here.

Where “and” joins values, the source holds several entries; their conditions need not be identical. Identical values can stand only once. Calls of active or inactive are those of the source.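 Rule for the calls: active = compounds giving half or more protection of infected cells from virus-caused growth loss, again on retest; inactive = the rest.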

In general, EC50 refers to the concentration that produces a half-maximal response. The term IC50 denotes the concentration that gives 50% inhibition. Lower therefore signals inhibition by little substance.

For the assay, the system named is CEM cells HIV-1 protection, formazan growth assay. The experiment in a line: NCI AIDS Antiviral Assay. Conditions: for IC50: measured here: growth of uninfected CEM cells. In short, it runs like this: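 Screen of anti-HIV-1 activity in human CEM cells using a formazan-based growth measurement at five drug concentrations. Hits with 50% or greater protection were repeated, and confirmation required reproducible complete protection.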

For `CCOC(=O)c1sc(Nc2cc(Cl)ccc2Cl)nc1C`, the outcome was inactive.
Turning to `C[C@H]1CC[C@H]([C@@H](C)[C@H]2[C@@H](O)C[C@H]3[C@@H]4CC[C@H]5C[C@@H](O)CC[C@]5(C)[C@H]4CC[C@]23C)NC1`, the EC50 is > 200 µM and the IC50 is 12.6 µM.
Turning to `CC(=O)SCC1CC[C@]2(C)C3CC[C@]4(C)C(C(C)CCC(=O)O)CCC4[C@@H]3CC[C@@H]2C1` (stereo partly specified), the EC50 was > 5.89 µM and the half-maximal inhibitory concentration (IC50) was > 5.89 µM.
In the case of `CC(=O)Nc1ccc(S(=O)(=O)Nc2cnc3ccccc3n2)cc1`, the EC50 is > 525 µM and the IC50 is > 525 µM.
With `Clc1ccc2c(c1)N(CCCN1CCCC13CCCCC3)c1ccccc1S2`, the EC50 was > 200 µM and the IC50 was 102 µM.
In the case of `CC12CCC3(C1)[C@H](CC2=O)C[C@@H](OC(=O)c1ccccc1)C1C(C)(C(=O)O)CCC[C@@]13C` (stereo partly specified), the EC50 is > 295 µM and the IC50 was 13.5 µM.
As to `C#CCN(Cc1ccc2nc(OC)c(OC)nc2c1)c1cc(OC)c(OC)c(OC)c1`, the EC50 is > 200 µM and the IC50 is 11.2 µM.
For the compound `Cc1ccc2c(c1)[nH]c1cc(C(F)(F)F)ccc1[p+]2=O` (stereo unspecified), the EC50 is > 200 µM and the 50% inhibitory concentration (IC50) stood at 26.3 µM.
Take `CC1(C23CC4CC(CC(C4)C2)C3)n2c(=O)n(-c3ccccc3)c(=O)n2C1(C)C12CC3CC(CC(C3)C1)C2` (stereo unspecified): the EC50 is > 50.1 µM and the 50% inhibitory concentration (IC50) was > 50.1 µM.
Regarding `O=S(=O)(ON=C1C=CC(=NOS(=O)(=O)c2ccccc2)C=C1)c1ccccc1`, the EC50 is > 200 µM and the 50% inhibitory concentration (IC50) came to 1.02 µM.
For `CC1=NOC(C)(O)/C1=N/O` (stereo unspecified) the same measures were > 200 µM and 158 µM.
Turning to `Nc1nc(N)nc(CC(=O)O)n1`, the EC50 was > 200 µM and the IC50 was > 200 µM.
Take `COC(=O)c1csc(-c2csc(CCNC(=O)OC(C)(C)C)n2)n1`: the EC50 was > 355 µM and the half-inhibitory concentration (IC50) was 60.3 µM.
For `O=C1/C(=C/c2ccc([N+](=O)[O-])cc2)CNC/C1=C\c1ccc([N+](=O)[O-])cc1` the same measures were > 2 µM and 0.363 µM.
`CN1CCC(O)C(CNC23CC4CC(CC(C4)C2)C3)C1` (stereo unspecified): the concentration for a half-maximal effect (EC50) was 97.7 µM and the IC50 turned out to be 178 µM.
On to `CC(C)OP(=O)(OC(C)C)/C(=N/Nc1ccc([N+](=O)[O-])cc1)NNC(=O)c1ccccc1`, for which the EC50 is > 40.7 µM and the IC50 came out at 17 µM.
Consider `CCOC1=NC(=O)CC(c2ccccc2)S1` (stereo unspecified), for which the outcome was inactive.
In the case of `CCOC(=O)/C(=C\c1ccccc1)[Se]c1ccccc1`, the EC50 was > 56.2 µM and the IC50 was > 56.2 µM.
As for `CNN1C(=O)c2c(C)c(C)c(C#N)c(N)c2C1=O`, the EC50 is > 200 µM and the half-inhibitory concentration (IC50) was > 200 µM.
Turning to `CC(CCC(=O)O)[C@H]1CCC2[C@H]3C(CC(=O)[C@@]21C)[C@@]1(C)CCC(O)C[C@H]1C[C@@H]3O` (stereo partly specified), the EC50 is > 200 µM and the half-maximal inhibitory concentration (IC50) is > 200 µM.
For the compound `c1ccc2c3nnc(c2c1)SCCSCCCSCCS3`, the EC50 was > 200 µM and the IC50 was > 200 µM.
Regarding `N=C1OC(CN2CCN(c3ccccc3)CC2)CN1C(=S)Nc1ccccc1` (stereo unspecified), the EC50 was > 200 µM and the IC50 is 141 µM.
For `COc1ccc(CCCCl)c(C2=NCCc3cc(OC)c(OC)cc32)c1` the same measures were > 200 µM and 36.3 µM.
Turning to `Cc1[nH]nc2c1NC(=O)OCC2`, the EC50 was > 550 µM and the concentration for half-maximal inhibition (IC50) is > 550 µM.
With `O=C(N/C(=C/c1cccc([N+](=O)[O-])c1)c1nc2ccc(Cl)cc2[nH]1)c1ccccc1`, the result was inactive.
Consider `CC1(C)OC(=O)N(c2ccccc2)C12C=Cc1cc([N+](=O)[O-])cc([N+](=O)[O-])c1O2` (stereo unspecified), for which the EC50 is > 200 µM and the IC50 turned out to be 117 µM.
As to `Cc1cnc2sn(-c3ccc([N+](=O)[O-])cc3)c(=O)c2c1`, the 50% effective concentration (EC50) is 7.59 µM and the 50% inhibitory concentration (IC50) is 107 µM.
Regarding `c1ccc(SC(CCCCOC2CCCCO2)Sc2ccccc2)cc1` (stereo unspecified), the outcome was inactive.
Turning to `[N-]=[N+]=NCc1nc(N)c2c3c(sc2n1)CCCC3`, the EC50 is > 200 µM and the half-maximal inhibitory concentration (IC50) is 1.12 µM.
With `COC1/C=C/OC2(C)Oc3c(C)c(O)c4c(O)c(c(C=NNC(=O)C(CO)(c5ccccc5)c5ccccc5)c(O)c4c3C2=O)NC(=O)/C(C)=C/C=C/C(C)C(O)C(C)C(O)C(C)C(OC(C)=O)C1C` (stereo unspecified), the EC50 was > 200 µM and the IC50 is 32.4 µM.
As to `CN1CC[C@]2(C)c3c(O)cccc3CC3CCCC1C32C` (stereo partly specified), the outcome was inactive.
Turning to `COc1cc(C=Nc2ccc(Oc3ccc(Cl)cc3)c(Cl)c2)cc(OC)c1OC`, the EC50 is > 200 µM and the 50% inhibitory concentration (IC50) is 30.9 µM.
As to `CC1=C(C(=O)Nc2c(C)cccc2C)C(c2ccccc2Cl)C(C(=O)Nc2c(C)cccc2C)=C(C)N1`, the EC50 was > 355 µM and the IC50 turned out to be 324 µM.
For `CCOC(=O)C(=Cc1cccc(OC)c1)C(=O)OCC` the same measures were > 129 µM and 14.8 µM.
Turning to `CCN1C(=O)C(=C/C=C/C=C2/N(C)c3ccccc3C2(C)C)C(=O)N(CC)C1=S`, the EC50 was > 200 µM and the IC50 is 18.6 µM.
Consider `CCOc1ccc(N=O)c(O)c1`, for which the EC50 was > 200 µM and the IC50 turned out to be 3.98 µM.
Consider `Oc1c(Cl)cc(Cl)c2cccnc12`, for which the outcome was inactive.
As for `CCCC[P+](c1ccccc1)(c1ccccc1)c1ccccc1`, the EC50 is > 200 µM and the half-inhibitory concentration (IC50) amounted to 2.57 µM.
For `Cc1c(CCO)c(=O)n2n1CCCC2` the same measures were > 200 µM and > 200 µM.
Take `CC[N+]1(C)CCC(O)(/C=C/c2ccc(Cl)cc2)C(C(=O)/C=C/c2ccc(Cl)cc2)C1` (stereo unspecified): the EC50 is > 20 µM and the IC50 is 2.95 µM.
With `N#Cc1ccc(-c2nc(C#N)c(N)o2)cc1`, the EC50 was 135 µM and the 50% inhibitory concentration (IC50) was > 200 µM.
In the case of `CC[C@H]1CN2CCc3cc(OC)c(OC)cc3[C@@H]2C[C@@H]1C[C@H]1NCCc2cc(OC)c(OC)cc21`, the result was inactive.
Turning to `Cc1ccc(C2(C)NC(=S)N(NC(N)=S)C2=S)cc1` (stereo unspecified), the EC50 was > 32.4 µM and the IC50 was > 32.4 µM.
Regarding `CC(=O)Nc1nnc2c3ccccc3n(C(C)=O)c2n1`, the EC50 was > 200 µM and the IC50 came out at 3.55 µM.
For the compound `COc1ccc(C2CCC(Cl)(OC)CC2C=O)cc1` (stereo unspecified), the EC50 is > 245 µM and the IC50 was 155 µM.
`OCC1CCCCCCCCCCC12SCCCS2` (stereo unspecified): the EC50 was > 200 µM and the IC50 came to 120 µM.
As to `CC(=O)OCC1OC(n2c(C)cc(-c3cccc4ccccc34)c(C#N)c2=S)C(OC(C)=O)C(OC(C)=O)C1OC(C)=O` (stereo unspecified), the EC50 is > 200 µM and the IC50 was determined as 21.4 µM.
For the compound `CCCCCCCCCCCCCCCCCC(=O)OCC(COC1OC(CS(=O)(=O)O)C(O)C(O)C1O)OC(=O)CCCCCCCCCCCCCCCCC` (stereo unspecified), the EC50 was 11.7 µM and > 20.4 µM; the outcome was inactive; the IC50 was 138 µM and > 20.4 µM.
For `COc1ccc2nc3ccc(OC)cc3c(S(=O)(=O)Cc3ccc([N+](=O)[O-])cc3)c2c1`, the EC50 was > 200 µM and the IC50 was > 200 µM.
For `COC(=O)C1CCC(=O)N1C(c1cc(OC)c(OC)c(OC)c1)c1cc(OC)c(OC)c(OC)c1` (stereo unspecified), the EC50 is > 200 µM and the IC50 was determined as 55 µM.
For `C=C=C(CC(CC(=C)Br)(C(=O)OC)C(=O)OC)S(=O)(=O)c1ccccc1`, the EC50 is > 200 µM and the IC50 worked out at 1.45 µM.
For `CCOC(=O)c1c(NC(=O)OC)c(C#N)c2n1CCCCC2` the same measures were > 200 µM and > 200 µM.
Regarding `CN(C)CCCNC(=O)c1c(O)c2ccccc2[nH]c1=O`, the EC50 is > 200 µM and the 50% inhibitory concentration (IC50) is > 200 µM.
For `COc1ccc(N2N=NN(C(C)C)/C2=C(/Cl)c2nnnn2-c2ccc(OC)cc2)cc1`, the EC50 was > 200 µM and the half-maximal inhibitory concentration (IC50) was found to be 9.33 µM.
Turning to `OC1c2ccccc2CCC1C(O)(C(F)(F)F)C(F)(F)F` (stereo unspecified), the EC50 was > 200 µM and the 50% inhibitory concentration (IC50) stood at 85.1 µM.
As to `O=C1CCC(N2C(=O)c3ccccc3C2=O)C(=O)N1` (stereo unspecified), the outcome was inactive.
As to `c1scc2c1COCCOCCOCCOCCOCCOC2`, the EC50 is > 724 µM and the half-inhibitory concentration (IC50) was 646 µM.
Consider `CCCC(N)S(=O)(=O)O` (stereo unspecified), for which the EC50 was > 200 µM and the IC50 was > 200 µM.
Regarding `OCC1NC(CO)C(O)C1O` (stereo unspecified), the outcome was inactive.
The same measure, in the same setting: in the case of `O=C(/C=C/c1ccc2c(c1)OCO2)c1cc(Cl)cc(Cl)c1O` it was “inactive”.
With `O=S(=O)(O)SCNCNCCSCc1ccccc1`, the EC50 was > 138 µM and the IC50 came out at 45.7 µM.
As for `C=C(COC(=O)CC(C)(C)CC(=O)O)[C@@H]1CC[C@]2(COC(=O)CC(C)(C)CC(=O)O)CC[C@]3(C)[C@H](CC[C@@H]4[C@@]5(C)CC[C@H](OC(=O)CC(C)(C)CC(=O)O)C(C)(C)[C@@H]5CC[C@]43C)[C@@H]12`, the EC50 was > 200 µM and the IC50 was 24.5 µM.
Turning to `O=C(NCCCl)c1ccc(Cl)c(Cl)c1`, the result was inactive.
Consider `CCN(CC)CC(O)CN(CC(=O)Nc1c(C)cccc1C)CC(C)C` (stereo unspecified), for which the EC50 is > 200 µM and the IC50 is > 200 µM.
As to `C(=C\c1ccccc1)/c1ccccc1`, the EC50 is > 200 µM and the IC50 is > 200 µM.
For the compound `COC(=O)/C(=N\Nc1nnc(C)n1N)C(C#N)c1ccc(Cl)cc1` (stereo unspecified), the EC50 was > 724 µM and the IC50 is 372 µM.
As to `O=c1c(C(c2ccc(Cl)cc2)c2c(O)c3ccccc3n(-c3ccccc3)c2=O)c(O)c2ccccc2n1-c1ccccc1`, the EC50 was > 8.71 µM and the IC50 is > 8.71 µM.
As for `COc1ccc(/C=N/N/C(O)=c2/sc(=C(C#N)C#N)n(-c3ccccc3)c2=N)cc1`, the EC50 is > 9.12 µM and the concentration for half-maximal inhibition (IC50) is > 9.12 µM.
Turning to `COc1ccc2nc(NC(=O)C(=O)C(C#N)c3ccc([N+](=O)[O-])cc3)sc2c1` (stereo unspecified), the result was inactive.
Take `CCOC(=O)NC(N(C)C(C(C)C)P(=O)(OCC)OCC)(C(F)(F)F)C(F)(F)F` (stereo unspecified): the EC50 was > 200 µM and the 50% inhibitory concentration (IC50) is > 200 µM.
Take `CC(C)CCn1c(=O)c2c(=O)[nH][nH]c2c2ccccc21`: the EC50 was > 200 µM and the 50% inhibitory concentration (IC50) is > 200 µM.
